In US11078232B2, “Preparation and use of molecular site targeted and activated kinase inhibitor” (Yafei Shanghai Biology Medicine Science & Technology Co. …, priority 2017, dated 2021):
Where two headings read alike, the source gives them in different places. Residues, ends and D or L forms follow the SMILES beside them. *: point of attachment. Doxorubicin(3'-N) = COc1cccc2c1C(=O)c1c(O)c3c(c(O)c1C2=O)C[C@@](O)(C(=O)CO)C[C@@H]3O[C@H]1C[C@H](N*)[C@H](O)[C@H](C)O1; X1 = CN(CCNC(=O)c1cc(Oc2ccc(NC(=O)Nc3ccc(Cl)c(C(F)(F)F)c3)cc2)ccn1)*; Hexanoyl(6-maleimido) = O=C1C=CC(=O)N1CCCCCC(=O)*

What was measured:
[1] = tested on: CT26 tumor cells; assay: CT26 immunotherapy model (Example 15); assay type: in vivo, mice
Description: (§1) 1) CT26 tumor cells were purchased from ATCC, and the cells were cultured using a 10% fetal bovine serum DMEM medium at 37° C., 5% CO2. The cells were passaged every 3 days and the cells were used within 15 generations.
(§2) 2) Tumor production: 10^6 live CT26 tumor cells were injected subcutaneously into the back of tumor-immunized […], and treatment was started when the tumor grew to about 0.3-0.4 cm. The tumor size (mm^3) of the mice was recorded and compared with the solvent control group. The tumor inhibition rate on day 42 was calculated in the solvent control group.
(§3) 3) Treatment process: IV injection is used, and the drug is used at a dose of ⅓ MTD once a week Immunosuppressive IV injection treatment once a week for a total of 6 weeks of treatment.
(§4) 4) The cure rate of 10 in each group was counted. After 50 days, the cured mice and wild groups were inoculated […] to detect recurrence.

[2] = tested on: CT26 tumor cells; assay: CT26 treatment model (Example 17); assay type: in vivo, mice; settings: CT26 model as in Example 15
Description: as §1, §2, §3, §4
The CT26 immunotherapy model was constructed as in Example 15, and the pharmacodynamic and immunotherapeutic effects of the compounds S4-S6, S9-S12 and S15-S18 in the CT26 treatment model were tested.

[3] = tested on: BALB/C mouse; assay: MTD (maximum tolerated dose) acute toxicity in mice; assay type: in vivo; settings: intravenous; for Number of deaths: 10 mice per group; for Death dose: observed 17 days
From the text: (§5) Test purpose: to investigate the acute toxicity of highly activated compounds by targeted site molecules of the invention by measuring the MTD (maximum tolerated dose) experiment in mice.
(§6) The injections of each drug and the control drug were uniformly dissolved using water for injection, and diluted to the corresponding dose with physiological saline during the test.
(§7) Methods and results: […] BALB/C mice, weighing 19-21 g, were randomly divided into 10 groups, with 10 mice in each group. […] A control test of the saline group and the adriamycin group injection (commercially available, Beijing Yue kang) was carried out, and the injection volume of each mouse was 0.2 ml. […] On the D3, D5, and D14, blood samples were taken for whole blood count.

[4] = tested on: D121 lung cancer cells; assay: D121 lung cancer immunotherapy model
Description: (1) D121 lung cancer cells purchased from ATCC were cultured in DMEM medium containing 10% fetal bovine serum at 37° C. and 5% CO2, and the cells were digested with EDTA trypsin according to routine use, and passed two to three times a week for placement.
(2) Animals: C57 BALB/C mice, 6-8 weeks old, female, weighing about 18-22 g, purchased from Shanghai SLAC Laboratory Animal Co., Ltd.
3) Immunization: Mice were intraperitoneally injected with 100 μL of 5×10^5 D121 lung cancer cells that died by repeated freeze-thaw cycles, and immunized 3 times with an interval of 2 weeks.
4) Cell seeding: Collect the tumor cells in logarithmic growth phase, adjust the D121 cell concentration to (1×10^7/ml) with DMEM basal medium, 0.1 ml of the cell suspension was inoculated to the right side of each mouse subcutaneously with a 1 ml syringe. […] Tumor volume was observed and measured, and the average tumor volume reached 100-200 mm^3 about 7 days after inoculation, that is, tumor cell-bearing mice were grouped and administered. The immunized group in Table 9 was immunized with D121 lung cancer cells, and the D121 dead tumor cell immunized group was injected with physiological saline as a control.
The immunosuppressive regulatory point protein Anti-PD-L1 antibody was injected twice a week. A total of two weeks.
6) Experimental observation: During the whole experiment, the use and observation of experimental animals were carried out in accordance with the regulations of AAALAC. The experimental animals were observed daily after inoculation of tumor cells, and their onset and death were recorded. During the routine experiment, all experimental animals were monitored and recorded for behavior, feeding, water intake, weight change, hair shine and other abnormalities.
(7) Analysis of tumor CD8+ T cells (T lymphocyte subsets). Tumor tissues were ground and single cancer cells were isolated by filtration using 40 μm Nylon cell strainer, lysed twice with blood cell lysis buffer for 20 min, washed twice with 1% BSA-PBS buffer, centrifuged, and resuspended, and then the cells were counted again. 1×10^5 cells were incubated with leukocyte co-antigen CD45-PE and CD8-FITC-labeled antibody for 1 hour at room temperature in the dark, and then analyzed the proportion of T lymphocyte antigen (CD8) in leukocyte common antigen (CD45)-positive cells by flow cytometry.

[5] = Solid stability, 60° C. for 10 days in the dark (HPLC); assay type: physicochemical
Description: The test was carried out by leaving it at 60° C. for 10 days in the dark. The ratio of the change in the content of the compound to the compound at time 0 was measured by HPLC, and the stability value (%) was calculated.

[6] = MTD (maximum tolerated dose) acute toxicity in mice; assay type: in vivo, mouse; settings: mouse, in vivo, BALB/C mice, intravenous, observed 17 days; for MTD at 17 days: female
From the text: as §5, §6, §7

[7] = solid, 60° C., 10 days, dark, content versus time 0

| SMILES | Cure rate % ([1]; 10 in each group) [%] | Number of cures ([1]; 10 in each group) | Tumor inhibition rate % (Day 42) ([1]; IV ⅓ MTD once a week, 6 weeks) [%] | CD8: CD45 (%) [2] [%] | Number of animals cured [2] | Tumor inhibition rate/% (at week 7) [2] [%] | Number of deaths [3] | Death dose [3] [mg/kg] | effect on T cells ([4]; flow cytometry, discussion of Table 6) | Tumor inhibition rate/% (week 7) ([4]; single agent, i.v. ⅙ MTD once a week for 4 weeks) [%] | CD8: CD45 (%) ([4]; single agent, tumor CD8+ T cells among CD45-positive cells, flow cytometry) | Stability verdict (stable / unstable) ([5]; solid, 60° C., 10 days, dark) | Stability(%) [5, 7] [%] | MTD at 17 days [6] [mg/kg] | Stability verdict (stable / unstable) [5] | Stability(%) [5] | Recurrence rate/% (at week 10) [2] [%] | MTD [6] [mg/kg] |
| --- | --- | --- | --- | --- | --- | --- | --- | --- | --- | --- | --- | --- | --- | --- | --- | --- | --- | --- |
| COc1cccc2c1C(=O)c1c(O)c3c(c(O)c1C2=O)C[C@@](O)(C(=O)CO)C[C@@H]3O[C@H]1C[C@H](N)[C@H](O)[C@H](C)O1 [Adriamycin, reference compound] | 0 | 0 | 24.5 | 6.4 | 0 | 14.6 | 3 | 10 | inhibited T cells | 14.6 | 5.4 |  |  |  |  |  |  |  |
| CC(C)C[C@H](NC(=O)[C@H](CC(N)=O)NC(=O)[C@H](C)NC(=O)[C@H](C)N)C(=O)N(C)CCNC(=O)c1cc(Oc2ccc(NC(=O)Nc3ccc(Cl)c(C(F)(F)F)c3)cc2)ccn1 [Compound C1, AANL-Compound a, reference compound] (H-AANL-X1) |  |  |  |  |  |  | 1 | 80 |  |  |  | stable | 96.8 | 65 |  |  |  |  |
| C[C@H](N)C(=O)N[C@@H](C)C(=O)N[C@@H](CC(N)=O)C(=O)Nc1ccc(COC(=O)N(C)CCNC(=O)c2cc(Oc3ccc(NC(=O)Nc4ccc(Cl)c(C(F)(F)F)c4)cc3)ccn2)cc1 [Compound C2, AAN-PABC-Compound a, reference compound] |  |  |  |  |  |  | 2 | 70 |  |  |  | unstable | 89.4 | 60 |  |  |  |  |
| COc1cccc2c1C(=O)c1c(O)c3c(c(O)c1C2=O)C[C@@](O)(C(=O)CO)C[C@@H]3O[C@H]1C[C@H](NC(=O)[C@H](CC(C)C)NC(=O)[C@H](CC(N)=O)NC(=O)[C@H](C)NC(=O)[C@H](C)NC(=O)CCCCCN2C(=O)C=CC2=O)[C@H](O)[C@H](C)O1 [Compound C11, EMC-AANL-Adriamycin, reference compound] ({Hexanoyl(6-maleimido)}-AANL-{Doxorubicin(3'-N)}) |  |  |  |  |  |  | 2 | 120 |  |  |  |  |  | 110 | 96.5, stable | 96.5, stable % |  |  |
| COc1cccc2c1C(=O)c1c(O)c3c(c(O)c1C2=O)C[C@](O)(C(=O)CO)CC3OC1C[C@H](NC(=O)OCc2ccc(NC(=O)C(CC(N)=O)NC(=O)C(C)NC(=O)C(NC(=O)[C@H](O)[C@H](O)[C@@H](O[C@@H]3O[C@H](CO)[C@H](O)[C@H](O)[C@H]3O)[C@H](O)CO)C(C)C)cc2)[C@H](O)[C@H](C)O1 (stereo partly shown) [Compound S9] |  |  |  | 13.8 | 3 | 66.7 | 2 | 120 |  |  |  |  |  | 100 |  |  | 0 |  |
| CC(NC(=O)C(NC(=O)[C@H](O)[C@H](O)[C@@H](O[C@@H]1O[C@H](CO)[C@H](O)[C@H](O)[C@H]1O)[C@H](O)CO)C(C)C)C(=O)NC(CC(N)=O)C(=O)Nc1ccc(COC(=O)Nc2nccc(-c3sc(C(C)(C)C)nc3-c3cccc(NS(=O)(=O)c4c(F)cccc4F)c3F)n2)cc1 (stereo partly shown) [Compound S10] |  |  |  | 15.9 | 2 | 76.7 | 1 | 320 |  |  |  |  |  | 310 |  |  | 0 |  |
| CC(NC(=O)C(NC(=O)[C@H](O)[C@H](O)[C@@H](O[C@@H]1O[C@H](CO)[C@H](O)[C@H](O)[C@H]1O)[C@H](O)CO)C(C)C)C(=O)NC(CC(N)=O)C(=O)Nc1ccc(COC(=O)Nc2c(-c3nc4ccc(N5CCN(C)CC5)cc4[nH]3)c(=O)[nH]c3cccc(F)c23)cc1 (stereo partly shown) [Compound S11] |  |  |  | 15.1 | 2 | 69.3 | 2 | 330 |  |  |  |  |  | 300 |  |  | 0 |  |
| CC(NC(=O)C(NC(=O)[C@H](O)[C@H](O)[C@@H](O[C@@H]1O[C@H](CO)[C@H](O)[C@H](O)[C@H]1O)[C@H](O)CO)C(C)C)C(=O)NC(CC(N)=O)C(=O)Nc1ccc(COC(=O)N2CC(C)(C)c3ccc(NC(=O)c4cccnc4NCc4ccncc4)cc32)cc1 (stereo partly shown) [Compound S12] |  |  |  | 10.8 | 1 | 55.5 | 1 | 300 |  |  |  |  |  | 290 |  |  | 0 |  |
| COc1cccc2c1C(=O)c1c(O)c3c(c(O)c1C2=O)C[C@](O)(C(=O)CO)CC3OC1C[C@H](NC(=O)OCc2ccc(NC(=O)C(CC(N)=O)NC(=O)C(C)NC(=O)C(NC(=O)[C@H](O)[C@H](O)[C@@H](O[C@@H]3O[C@H](CO)[C@H](O)[C@H](O)[C@H]3O)[C@H](O)CO)C(C)O)cc2)[C@H](O)[C@H](C)O1 (stereo partly shown) [Compound S15] |  |  |  | 15.3 | 1 | 70.2 | 1 | 100 |  |  |  |  |  | 90 |  |  | 0 |  |
| C[C@H](NC(=O)[C@@H](NC(=O)[C@H](O)[C@@H](O)[C@H](O[C@@H]1O[C@H](CO)[C@H](O)[C@H](O)[C@H]1O)[C@H](O)CO)[C@@H](C)O)C(=O)N[C@@H](CC(N)=O)C(=O)Nc1ccc(COC(=O)Nc2nccc(-c3sc(C(C)(C)C)nc3-c3cccc(NS(=O)(=O)c4c(F)cccc4F)c3F)n2)cc1 [Compound S16] |  |  |  | 15.5 | 2 | 71.6 | 2 | 300 |  |  |  |  |  |  |  |  | 0 | 290 |
| CC(NC(=O)C(NC(=O)[C@H](O)[C@H](O)[C@@H](O[C@@H]1O[C@H](CO)[C@H](O)[C@H](O)[C@H]1O)[C@H](O)CO)C(C)O)C(=O)NC(CC(N)=O)C(=O)Nc1ccc(COC(=O)Nc2c(-c3nc4ccc(N5CCN(C)CC5)cc4[nH]3)c(=O)[nH]c3cccc(F)c23)cc1 (stereo partly shown) [Compound S17] |  |  |  | 16.2 | 1 | 70.9 | 1 | 310 |  |  |  |  |  | 290 |  |  | 0 |  |
| CC(NC(=O)C(NC(=O)[C@H](O)[C@H](O)[C@@H](O[C@@H]1O[C@H](CO)[C@H](O)[C@H](O)[C@H]1O)[C@H](O)CO)C(C)O)C(=O)NC(CC(N)=O)C(=O)Nc1ccc(COC(=O)N2CC(C)(C)c3ccc(NC(=O)c4cccnc4NCc4ccncc4)cc32)cc1 (stereo partly shown) [Compound S18] |  |  |  | 15.6 | 2 | 71.7 | 2 | 290 |  |  |  |  |  | 280 |  |  | 0 |  |
